This test relates to M. furfur (CBS 1878). In words: ΣFIC assay against Malassezia furfur (in-vitro susceptibility testing, alamar blue). The test is classed as cell-based. The settings on record: for MIC: Malassezia furfur; for interaction with zinc pyrithione (synergy) in words: binary combination with zinc pyrithione, judged from ΣFIC; for ΣFIC: in combination with zinc pyrithione 0 to 12.5 ppm, climbazole 0 to 500 ppm, selenium sulfide 0 to 100 ppm. The protocol:
A brief description of the method is given below.
Methods: ΣFIC assay against Malassezia furfur
They are then incubated at 32° C. for 48 hrs with shaking. Then, 1 ml of the first broth culture is transferred into 9 ml of fresh PB and incubated at 32° C. for 48 hrs with shaking. The final culture should contain 2 to 6×10^6 cells/ml. This is achieved by diluting using PB to 5*10^5 cell/ml.
The alcoholic compound was serially diluted (2-fold) to prepare in a range of 10-10,000 ppm in growth medium.
Binary combinations of ZPTO and the testing compound were prepared in 96-well plate by mixing 20 μl of zinc pyrithione solution with 20 μl of testing compound. The solution in each well were further mixed with 160 μl of PB and 20 μl of M. furfur. The final cell density in the testing plate is around 5*10^4 cell/ml, and the final concentration of actives in each well of the 96-wel plate were shown below.
The plate was incubated at 32° C. for one day. Then 20 μl of alamar blue (0.01%) was added into each well with a further incubation for one day to observe the color change. Red color indicates microbial growth and the non-changing blue color indicates no growth.
The MIC is defined as the absolute lowest concentration of active that provides complete microbial growth inhibition as indicated by the blue color of alamar blue under the tested condition.
The differing behaviours of inhibitory antimicrobials in isolation and mixtures have been widely explored using the concept of the Fractional Concentration (FC) and Fractional
Inhibitory Concentration (FIC). The parameter can be defined as follows: […]
The interactions between antimicrobials can be additive, synergistic or antagonistic depending on whether the efficacy of the combination is equivalent to, greater than or less than that obtained for the same total concentration of the individual components when tested alone.
These relationships can be expressed mathematically by summing the fractional MIC values for all the components present in the mixture to give the “fractional inhibition index”. There is no consistent approach in the academic or patent literature in defining precise limiting ΣFIC values that differentiate synergy from additivity or antagonism. In this study, we have adopted a liberal approach defining any binary mixture with ΣFIC <0.9 as showing evidence of synergistic behavior.
ΣFIC=FIC (component 1)+FIC (component 2)
ΣFIC=1 corresponds to additive bactericidal activity
ΣFIC>1 corresponds to antagonistic bactericidal activity
ΣFIC<0.9 corresponds to synergistic bactericidal activity
Climbazole was varied over a concentration of 0 to 500 ppm and selenium sulfide over a concentration of 0 to 100 ppm.
For orientation: Alamar Blue is a resazurin reagent that responds to reducing activity.

Where [1] appears, read: CBS1878, read-out: Minimum Inhibition Concentration (MIC).

SMILES strings stand for the structures. Read-outs that look alike come from different tables or passages of the source.

Take `C=CCc1ccc(O)c(-c2cc(CC=C)ccc2O)c1` [magnalol]: under setting [1], the MIC was 500 µg/mL.

With `CC(C)(C)C(=O)C(Oc1ccc(Cl)cc1)n1ccnc1` (stereo not drawn) [climbazole], the “interaction with zinc pyrithione (synergy) in words” value was “not synergistic” and the ΣFIC came out at 2. Further, where the note is “CBS1878, active alone, lowest concentration giving complete growth inhibition (alamar blue stays blue), 32° C., Pityrosporum Broth, read-out: Minimum Inhibition Concentration (MIC)”, the MIC amounted to 3.9 µg/mL.

Turning to `C=CCc1ccc(O)c(-c2ccc(O)c(CC=C)c2)c1` [honokiol], under setting [1], the MIC was 1000 µg/mL.

For `S=[Se]=S` [selenium sulfide], the “interaction with zinc pyrithione (synergy) in words” value was “not synergistic” and the ΣFIC was found to be 2. Also, the “Minimum Inhibition Concentration (MIC)” value (active alone, lowest concentration giving complete growth inhibition (alamar blue stays blue), 32° C., Pityrosporum Broth) is 50 ppm.

For `COc1ccc(C(C)=O)c(O)c1` [paeonol], the MIC under setting [1] worked out at 500 µg/mL.

The values are drawn from patent US11246817B2, “Antimicrobial composition” (Conopco, Inc., priority 2016, dated 2022).
